Measurements from ChEMBL document CHEMBL1126559, “Further studies of the structure-activity relationships of 1-[1-(2-benzo[b]thienyl)cyclohexyl]piperidine. Synthesis and evaluation of 1-(2-benzo[b]thienyl)-N,N-dialkylcyclohexylamines at dopamine uptake and phencyclidine binding sites” (J Med Chem, 1993).

Columns and labels:
[1] = biological target: T1, Sodium-dependent dopamine transporter (Rattus norvegicus, UniProt P23977); test: Tested for radioligand [3H]BTCP displacement from dopamine transporter in rat forebrain
[2] = biological target: T1, Sodium-dependent dopamine transporter; test: Tested for inhibition of radioligand [3H]dopamine (DA) uptake in rat synaptosomes; assay type: subcellular, Brain
[3] = biological target: Glutamate NMDA receptor; test: Tested for affinity by radioligand [3H]-TCP displacement from phencyclidine binding site (PCP) in rat homogenates
[4] = biological target: T1, Sodium-dependent dopamine transporter; test: Tested for radioligand [3H]cocaine displacement from dopamine transporter in rat forebrain

T1 sequence (P23977 whole entry): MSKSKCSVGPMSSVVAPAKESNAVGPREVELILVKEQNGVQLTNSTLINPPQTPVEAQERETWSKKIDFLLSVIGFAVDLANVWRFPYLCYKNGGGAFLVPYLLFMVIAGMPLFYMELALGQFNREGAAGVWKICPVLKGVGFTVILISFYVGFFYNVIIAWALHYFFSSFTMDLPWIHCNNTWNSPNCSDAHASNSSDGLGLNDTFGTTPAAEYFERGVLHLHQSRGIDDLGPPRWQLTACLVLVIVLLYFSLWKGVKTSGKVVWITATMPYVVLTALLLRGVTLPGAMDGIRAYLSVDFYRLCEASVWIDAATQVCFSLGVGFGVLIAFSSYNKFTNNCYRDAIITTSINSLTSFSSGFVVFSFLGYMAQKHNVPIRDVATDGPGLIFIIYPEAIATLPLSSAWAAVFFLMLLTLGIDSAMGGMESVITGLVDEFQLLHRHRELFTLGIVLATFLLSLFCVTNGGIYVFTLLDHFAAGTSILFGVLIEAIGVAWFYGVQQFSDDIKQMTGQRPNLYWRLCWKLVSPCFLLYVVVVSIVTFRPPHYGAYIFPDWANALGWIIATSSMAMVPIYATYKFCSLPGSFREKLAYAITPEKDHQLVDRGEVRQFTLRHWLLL

| Compound | IC50 [1] [nM] | IC50 [2] [nM] | Ki [3] [nM] | IC50 [4] [nM] |
| --- | --- | --- | --- | --- |
| O=C(Cc1ccc(Cl)c(Cl)c1)NCCNC1(c2cc3ccccc3s2)CCCCC1 | 579 | 947 | > 10000 | 1480 |
| CNCCNC1(c2cc3ccccc3s2)CCCCC1 | 17 | 29 | > 10000 | 63 |
| Clc1ccc(CCNCCNC2(c3cc4ccccc4s3)CCCCC2)cc1Cl | 211 | 174 | > 10000 | 713 |
| c1ccc2sc(C3(NCC4CCC4)CCCCC3)cc2c1 | 4 | 7 | > 10000 | 37 |
| c1ccc2sc(C3(NCC4CC4)CCCCC3)cc2c1 | 1 | 4 | > 10000 | 23 |
| CC(C)=CCNC1(c2cc3ccccc3s2)CCCCC1 | 8 | 14 | > 10000 | 50 |
| NCCNC1(c2cc3ccccc3s2)CCCCC1 | 30 | 88 | > 10000 | 170 |
| c1ccc2sc(C3(N4CCCCC4)CCCCC3)cc2c1 |  | 11 | > 10000 | 39 |
| CCCCNC1(c2cc3ccccc3s2)CCCCC1 | 0.3 | 7 | > 10000 | 60 |
| CCCN(CCC)C1(c2cc3ccccc3s2)CCCCC1 | 37 | 81 | > 10000 | 220 |
| c1ccc(CNC2(c3cc4ccccc4s3)CCCCC2)cc1 | 143 | 196 | > 10000 |  |
| CCCCN(C)C1(c2cc3ccccc3s2)CCCCC1 | 21 | 33 | > 10000 | 161 |
| CCCCN(CCCC)C1(c2cc3ccccc3s2)CCCCC1 | 124 | 1360 | > 10000 | 386 |
| CCCCCNC1(c2cc3ccccc3s2)CCCCC1 | 24 | 34 | > 10000 | 337 |
| CNC1(c2cc3ccccc3s2)CCCCC1 | 101 | 57 | > 10000 | 270 |
| CNCCCNC1(c2cc3ccccc3s2)CCCCC1 | 8 | 89 | > 10000 | 746 |
| CNCCCCNC1(c2cc3ccccc3s2)CCCCC1 | 50 | 33 | > 10000 | 328 |
| CCCN(CC)C1(c2cc3ccccc3s2)CCCCC1 | 20 | 17 | > 10000 | 207 |
| CCN(CC)C1(c2cc3ccccc3s2)CCCCC1 | 12 | 12 | > 10000 | 42 |
| O=C1NCCN1C1(c2cc3ccccc3s2)CCCCC1 | 1740 | 2120 | > 10000 | > 5000 |
| NCCCNC1(c2cc3ccccc3s2)CCCCC1 |  |  | > 10000 |  |
| CCNC1(c2cc3ccccc3s2)CCCCC1 | 22 | 22 | > 10000 | 165 |
| NCC(=O)NC1(c2cc3ccccc3s2)CCCCC1 | 114 | 138 | > 10000 | 841 |
| CN(C)C1(c2cc3ccccc3s2)CCCCC1 | 27 | 51 | > 10000 | 84 |
| Clc1ccc(CCNC2(c3cc4ccccc4s3)CCCCC2)cc1Cl | 1000 | > 5000 | > 10000 | > 5000 |
| CCCNC1(c2cc3ccccc3s2)CCCCC1 | 4 | 5 | > 10000 | 57 |
| C=CCNC1(c2cc3ccccc3s2)CCCCC1 | 7 | 11 | > 10000 | 57 |
| COC(=O)[C@H]1[C@@H](OC(=O)c2ccccc2)C[C@@H]2CC[C@H]1N2C [COCAINE] |  |  | > 10000 |  |
